According to publication PMC7561186, “Rational design of balanced dual-targeting antibiotics with limited resistance” (PLoS Biology, 2020):
Values after ≈ are worked out from the molar mass of the structure shown. Like-named read-outs stand apart in the source and are kept apart here.

Tested on: S. aureus clinical isolates
Experiment: microbe, parasite or virus in culture
Assay type: cell-based
Conditions: Staphylococcus aureus, read-out: MIC

Compound: CC[C@H]1OC(=O)[C@H](C)[C@@H](O[C@H]2C[C@@](C)(OC)[C@@H](O)[C@H](C)O2)[C@H](C)[C@@H](O[C@@H]2O[C@H](C)C[C@H](N(C)C)[C@H]2O)[C@](C)(O)C[C@@H](C)CN(C)[C@H](C)[C@@H](O)[C@]1(C)O [Azithromycin]
- MIC (ATCC 29213 / MSSA, S. aureus ATCC 29213, MSSA / VSSA, test date 2018-10-25 (three repeat lines)): 1 µg/mL (≈ 1.34 µM)
- MIC (ATCC 29213 / MSSA, S. aureus ATCC 29213, MSSA / VSSA, test date 2018-11-07): 1 µg/mL (≈ 1.34 µM)
- MIC (MRSA / NRS 3 / VISA, S. aureus IHMA 1308243, NRS3, MRSA / VISA): > 32 µg/mL
- MIC (MRSA / NRS 4 / VISA, S. aureus IHMA 649380, NRS4, MRSA / VISA): > 32 µg/mL
- MIC (MRSA / NRS 18 / VISA, S. aureus IHMA 649386, NRS18, MRSA / VISA): > 32 µg/mL
- MIC (MRSA / NRS 19 / VISA, S. aureus IHMA 649387, NRS19, MRSA / VISA): > 32 µg/mL
- MIC (MRSA / NRS 21 / VISA, S. aureus IHMA 649388, NRS21, MRSA / VISA): 0.5 µg/mL (≈ 0.668 µM)
- MIC (MRSA / NRS 22 / USA600 / VISA, S. aureus IHMA 649389, NRS22, MRSA / VISA, USA600): > 32 µg/mL
- MIC (MRSA / NRS 23 / VISA, S. aureus IHMA 649390, NRS23, MRSA / VISA): > 32 µg/mL
- MIC (MRSA / NRS 24 / VISA, S. aureus IHMA 649391, NRS24, MRSA / VISA): > 32 µg/mL
- MIC (MRSA / NRS 26, S. aureus IHMA 649392, NRS26, MRSA / VSSA): > 32 µg/mL
- MIC (MRSA / NRS 27 / VISA, S. aureus IHMA 1308248, NRS27, MRSA / VISA): > 32 µg/mL
- MIC (MRSA / NRS 29 / VISA, S. aureus IHMA 1308250, NRS29, MRSA / VISA): > 32 µg/mL
- MIC (MRSA / NRS 37 / VISA, S. aureus IHMA 1308251, NRS37, MRSA / VISA): > 32 µg/mL
- MIC (MRSA / NRS 54, S. aureus IHMA 1308253, NRS54, MRSA / VSSA* (*Expected VAN intermediate, confirmed VAN susceptible twice), test date 2018-11-07): > 32 µg/mL
- MIC (MRSA / NRS 56 / VISA, S. aureus IHMA 1308254, NRS56, MRSA / VISA): > 32 µg/mL
- MIC (MRSA / USA100 / VRSA, S. aureus IHMA 672230, VRS1, MRSA / VRSA, USA100): > 32 µg/mL
- MIC (MRSA / USA100 / VRSA, S. aureus IHMA 672231, VRS2, MRSA / VRSA, USA100): > 32 µg/mL
- MIC (MRSA / USA100 / VRSA, S. aureus IHMA 672234, VRS4, MRSA / VRSA, USA100): > 32 µg/mL
- MIC (MRSA / USA100 / VRSA, S. aureus IHMA 672235, VRS5, MRSA / VRSA, USA100): > 32 µg/mL
- MIC (MRSA / USA100 / VRSA, S. aureus IHMA 672237, VRS7, MRSA / VRSA, USA100): > 32 µg/mL
- MIC (MRSA / USA100 / VRSA, S. aureus IHMA 672238, VRS8, MRSA / VRSA, USA100): > 32 µg/mL
- MIC (MRSA / USA100 / VRSA, S. aureus IHMA 672239, VRS9, MRSA / VRSA, USA100): > 32 µg/mL
- MIC (MRSA / USA100 / VRSA, S. aureus IHMA 1308256, VRS10, MRSA / VRSA, USA100): > 32 µg/mL
- MIC (MRSA / USA100 / VRSA, S. aureus IHMA 1308258, VRS11b, MRSA / VRSA, USA100): > 32 µg/mL
- MIC (MRSA / USA800 / VRSA, S. aureus IHMA 672233, VRS3b, MRSA / VRSA, USA800): > 32 µg/mL
- MIC (MRSA, S. aureus IHMA 1569509, MRSA / VSSA): > 32 µg/mL
- MIC (MRSA, S. aureus IHMA 1575268, MRSA / VSSA): > 32 µg/mL
- MIC (MRSA, S. aureus IHMA 1575629, MRSA / VSSA): 1 µg/mL (≈ 1.34 µM)
- MIC (MRSA, S. aureus IHMA 1577820, MRSA / VSSA): > 32 µg/mL
- MIC (MRSA, S. aureus IHMA 1580300, MRSA / VSSA): 0.5 µg/mL (≈ 0.668 µM)
- MIC (MRSA, S. aureus IHMA 1580940, MRSA / VSSA): > 32 µg/mL
- MIC (MRSA, S. aureus IHMA 1582100, MRSA / VSSA): > 32 µg/mL
- MIC (MRSA, S. aureus IHMA 1583795, MRSA / VSSA): > 32 µg/mL
- MIC (MRSA, S. aureus IHMA 1584223, MRSA / VSSA): 32 µg/mL (≈ 42.7 µM)
- MIC (MRSA, S. aureus IHMA 1585316, MRSA / VSSA): > 32 µg/mL
- MIC (MRSA, S. aureus IHMA 1586780, MRSA / VSSA): 1 µg/mL (≈ 1.34 µM)
- MIC (MRSA, S. aureus IHMA 1587322, MRSA / VSSA): > 32 µg/mL
- MIC (MRSA, S. aureus IHMA 1588127, MRSA / VSSA): 0.5 µg/mL (≈ 0.668 µM)
- MIC (MRSA, S. aureus IHMA 1591462, MRSA / VSSA): 1 µg/mL (≈ 1.34 µM)
- MIC (MRSA, S. aureus IHMA 1592755, MRSA / VSSA): 0.5 µg/mL (≈ 0.668 µM)
- MIC (MRSA, S. aureus IHMA 1592776, MRSA / VSSA): > 32 µg/mL
- MIC (MRSA, S. aureus IHMA 1597106, MRSA / VSSA): > 32 µg/mL
- MIC (MRSA, S. aureus IHMA 1602095, MRSA / VSSA): > 32 µg/mL
- MIC (MRSA, S. aureus IHMA 1611170, MRSA / VSSA): > 32 µg/mL
- MIC (MRSA, S. aureus IHMA 1611612, MRSA / VSSA): > 32 µg/mL
- MIC (MRSA, S. aureus IHMA 1612228, MRSA / VSSA): 16 µg/mL (≈ 21.4 µM)
- MIC (MRSA, S. aureus IHMA 1620441, MRSA / VSSA): > 32 µg/mL
